Laboratory results taken from paper PMC9506485, “Synthesis and Structure–Activity Relationships for the Anti-Mycobacterial Activity of 3-Phenyl-N-(Pyridin-2-ylmethyl)Pyrazolo[1,5-a]Pyrimidin-7-Amines” (Pharmaceuticals, 2022).
Values after ≈ are worked out from the molar mass of the structure shown.

Legend:
[1] = Microsomal stability, mouse liver microsomes; format: in vitro ADME; details: for CLint scaled at 1 μM / half-life at 1 μM: CD-1, mouse, microsomes, pH 7.4; for microsomal CLint at 1 μM: CD-1, pH 7.4, mouse liver microsomes, read-out: MLM Clint(mic)
Procedure: (§1) Assays were performed by WuXi AppTec (Shanghai) Co., Ltd. The test compounds (Table 4) (at 1 μM) were incubated at 37 °C with liver microsomes from human or CD-1 mice in the presence of a NADPH regenerating system and phosphate buffer (100 mM, pH 7.4) at 0.5 mg/mL microsomal protein (the positive controls were testosterone, propafenone, and diclofenac). Samples were removed at time intervals of 0, 5, 10, 20, 30, and 60 min and immediately mixed with cold CH3CN (containing 0.1 μg/mL of tolbutamide as an internal standard) and then centrifuged prior to analysis by LCMS/MS.

[2] = system: Mycobacterium tuberculosis (strain H37Rv); test: LORA minimum inhibitory concentration assay (low-oxygen/non-replicating); details: M.tb H37Rv, 90% inhibition of growth
[3] = system: VERO green monkey kidney cells; test: VERO mammalian cell toxicity assay; format: cell-based; details: Chlorocebus sabaeus; inhibition of growth of VERO green monkey kidney epithelial cells
hERG = hERG (Homo sapiens, UniProt Q12809); test: hERG channel blockade, manual patch clamp; format: cell-based; details: cloned hERG potassium channels, room temperature; for inhibition at 0.3 µM: read-out: hERG % inhib. at 0.3 µM; for inhibition at 1 µM: read-out: hERG % inhib. at 1.0 µM
Chain of hERG (Q12809 whole entry): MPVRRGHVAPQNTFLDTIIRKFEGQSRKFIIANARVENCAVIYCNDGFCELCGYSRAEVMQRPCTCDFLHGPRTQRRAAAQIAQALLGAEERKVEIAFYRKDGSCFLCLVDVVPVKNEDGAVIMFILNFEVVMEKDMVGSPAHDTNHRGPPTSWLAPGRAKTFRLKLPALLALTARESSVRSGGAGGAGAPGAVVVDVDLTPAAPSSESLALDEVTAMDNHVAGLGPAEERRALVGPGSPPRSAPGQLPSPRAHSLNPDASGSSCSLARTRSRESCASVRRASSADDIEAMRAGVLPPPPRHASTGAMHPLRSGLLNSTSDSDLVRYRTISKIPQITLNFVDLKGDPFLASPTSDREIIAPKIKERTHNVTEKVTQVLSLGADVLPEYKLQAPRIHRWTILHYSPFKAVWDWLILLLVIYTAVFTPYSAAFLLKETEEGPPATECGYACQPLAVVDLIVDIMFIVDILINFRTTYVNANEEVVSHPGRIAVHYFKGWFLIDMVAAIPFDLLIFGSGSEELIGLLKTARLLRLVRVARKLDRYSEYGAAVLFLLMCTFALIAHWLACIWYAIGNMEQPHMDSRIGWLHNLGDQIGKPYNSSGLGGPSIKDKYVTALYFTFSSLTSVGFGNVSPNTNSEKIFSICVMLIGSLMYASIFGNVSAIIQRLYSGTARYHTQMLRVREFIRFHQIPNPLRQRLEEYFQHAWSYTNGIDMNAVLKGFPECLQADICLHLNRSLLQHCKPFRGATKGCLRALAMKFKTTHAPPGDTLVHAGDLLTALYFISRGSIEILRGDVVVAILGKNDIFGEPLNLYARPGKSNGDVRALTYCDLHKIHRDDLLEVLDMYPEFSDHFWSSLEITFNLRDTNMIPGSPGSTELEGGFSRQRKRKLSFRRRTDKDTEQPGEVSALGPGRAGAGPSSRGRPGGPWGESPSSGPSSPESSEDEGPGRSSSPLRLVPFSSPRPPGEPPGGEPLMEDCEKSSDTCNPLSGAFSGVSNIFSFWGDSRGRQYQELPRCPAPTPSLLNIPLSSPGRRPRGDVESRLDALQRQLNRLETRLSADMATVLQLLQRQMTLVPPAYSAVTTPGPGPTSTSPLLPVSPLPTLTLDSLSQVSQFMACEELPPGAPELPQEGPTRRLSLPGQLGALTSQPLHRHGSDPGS
Procedure: Selected compounds were evaluated for hERG channel blockade (Table 4) by WuXi AppTec (Shanghai) Co., Ltd. This was carried out using cloned hERG potassium channels according to their standard manual patch clamp method. Two concentrations (0.3 and 1.0 µM) were tested (at room temperature), and at least three replicates were obtained for each. Amitryptyline was used as a standard.

[4] = system: Mycobacterium tuberculosis (strain H37Rv); test: MABA minimum inhibitory concentration assay (aerobic/replicating); format: cell-based; details: M.tb H37Rv; for MIC90: Mycobacterium tuberculosis, aerobic/replicating, 90% inhibition of growth
[5] = Microsomal stability, human liver microsomes; format: in vitro ADME; details: pH 7.4; for microsomal CLint at 1 μM: human liver microsomes, read-out: HLM Clint(mic)
Procedure: as §1

[6] = human/mouse liver microsomes not distinguished, read-out: T½ values (microsomal stability)

## Cc1cccc(-c2cc(NCc3ccccn3)n3ncc(-c4ccc(F)cc4)c3n2)c1 [Compound 30, 3-(4-Fluorophenyl)-N-(pyridin-2-ylmethyl)-5-(m-tolyl)pyrazolo[1,5-a]pyrimidin-7-amine]
[1]
  CLint scaled at 1 μM: < 38 mL/min/kg
  half-life at 1 μM: > 2.42 h
  microsomal CLint at 1 μM: < 9.6 µL/min/mg
[2]
  MIC90 LORA: 0.9 µg/mL (≈ 2.2 µM)
[3]
  IC50: > 32 µg/mL
hERG
  inhibition at 0.3 µM: 3%
  inhibition at 1 µM: 11%
[4]
  MIC90: 1.6 µg/mL (≈ 3.91 µM)
[5]; human, microsomes
  CLint scaled at 1 μM: < 8.6 mL/min/kg
  half-life at 1 μM: > 2.42 h
[5]
  microsomal CLint at 1 μM: < 9.6 µL/min/mg

## Fc1ccc(-c2cnn3c(NCc4ccccn4)cc(-c4ccoc4)nc23)cc1 [Compound 44, 3-(4-Fluorophenyl)-5-(furan-3-yl)-N-(pyridin-2-ylmethyl)pyrazolo[1,5-a]pyrimidin-7-amine]
[1]
  CLint scaled at 1 μM: 570 mL/min/kg
  half-life at 1 μM: 0.167 h
  microsomal CLint at 1 μM: 144 µL/min/mg
[2]
  MIC90 LORA: 0.16 µg/mL (≈ 0.415 µM)
[3]
  IC50: > 32 µg/mL
hERG
  inhibition at 0.3 µM: 4%
  inhibition at 1 µM: 14%
[4]
  MIC90: 0.96 µg/mL (≈ 2.49 µM)
[5]; human, microsomes
  CLint scaled at 1 μM: 66 mL/min/kg
  half-life at 1 μM: 0.317 h
[5]
  microsomal CLint at 1 μM: 74 µL/min/mg
[5]; [6]
  half-life at 1 μM: < 1.42 h

## Fc1ccc(-c2cnn3c(NCc4ccc(F)cn4)cc(-c4ccccc4)nc23)cc1 [Compound 52, 3-(4-Fluorophenyl)-N-((5-fluoropyridin-2-yl)methyl)-5-phenylpyrazolo[1,5-a]pyrimidin-7-amine]
[1]
  CLint scaled at 1 μM: 50.3 mL/min/kg
  half-life at 1 μM: 1.82 h
  microsomal CLint at 1 μM: 12.7 µL/min/mg
other
  melting point: 118 to 120 °C
[2]
  MIC90 LORA: 3.4 µg/mL (≈ 8.22 µM)
[3]
  IC50: > 32 µg/mL
hERG
  inhibition at 0.3 µM: 0.8%
  inhibition at 1 µM: 11%
[4]
  MIC90: 3.7 µg/mL (≈ 8.95 µM)
[5]; human, microsomes
  CLint scaled at 1 μM: 11 mL/min/kg
  half-life at 1 μM: 1.81 h
[5]
  microsomal CLint at 1 μM: 13 µL/min/mg

## Fc1ccc(-c2cnn3c(NCc4ccccn4)cc(-c4ccsc4)nc23)cc1 [Compound 42, 3-(4-Fluorophenyl)-N-(pyridin-2-ylmethyl)-5-(thiophen-3-yl)pyrazolo[1,5-a]pyrimidin-7-amine]
[1]
  CLint scaled at 1 μM: 298 mL/min/kg
  half-life at 1 μM: 0.3 h
  microsomal CLint at 1 μM: 75 µL/min/mg
[2]
  MIC90 LORA: 0.22 µg/mL (≈ 0.548 µM)
[3]
  IC50: > 32 µg/mL
hERG
  inhibition at 0.3 µM: 9%
  inhibition at 1 µM: 24%
[4]
  MIC90: 1.4 µg/mL (≈ 3.49 µM)
[5]; human, microsomes
  CLint scaled at 1 μM: 43 mL/min/kg
  half-life at 1 μM: 0.483 h
[5]
  microsomal CLint at 1 μM: 47 µL/min/mg
[5]; [6]
  half-life at 1 μM: < 1.42 h

## Fc1ccc(-c2cnn3c(NCc4ccccn4)cc(-c4ccccc4)nc23)cc1 [Compound 18, 3-(4-Fluorophenyl)-5-phenyl-N-(pyridin-2-ylmethyl)pyrazolo[1,5-a]pyrimidin-7-amine]
[1]
  CLint scaled at 1 μM: 99 mL/min/kg
  half-life at 1 μM: 0.933 h
  microsomal CLint at 1 μM: 25 µL/min/mg
other
  melting point: 191 to 193 °C
[2]
  MIC90 LORA: 0.40 µg/mL (≈ 1.01 µM)
[3]
  IC50: > 32 µg/mL
hERG
  inhibition at 0.3 µM: 0.3%
  inhibition at 1 µM: 5%
[4]; MABA/LORA
  anti-mycobacterial activity in words: active
[4]
  MIC90: 3.8 µg/mL (≈ 9.61 µM)
[5]; human, microsomes
  CLint scaled at 1 μM: 12 mL/min/kg
  half-life at 1 μM: 1.75 h
[5]
  microsomal CLint at 1 μM: 13 µL/min/mg
[5]; [6]
  half-life at 1 μM: < 1.42 h

## COc1ccc(CNc2cc(-c3ccccc3)nc3c(-c4ccc(F)cc4)cnn23)nc1 [Compound 54, 3-(4-Fluorophenyl)-N-((5-methoxypyridin-2-yl)methyl)-5-phenylpyrazolo[1,5-a]pyrimidin-7-amine]
[1]
  CLint scaled at 1 μM: < 38 mL/min/kg
  half-life at 1 μM: > 2.42 h
  microsomal CLint at 1 μM: < 9.6 µL/min/mg
other
  melting point: 212 to 214 °C
[2]
  MIC90 LORA: 1.3 µg/mL (≈ 3.06 µM)
[3]
  IC50: > 32 µg/mL
[4]
  MIC90: 3.6 µg/mL (≈ 8.46 µM)
[5]; human, microsomes
  CLint scaled at 1 μM: < 8.6 mL/min/kg
  half-life at 1 μM: > 2.42 h
[5]
  microsomal CLint at 1 μM: < 9.6 µL/min/mg

## Fc1ccc(-c2cnn3c(NCc4ccccn4)cc(C4CC4)nc23)cc1 [Compound 25, 5-Cyclopropyl-3-(4-fluorophenyl)-N-(pyridin-2-ylmethyl)pyrazolo[1,5-a]pyrimidin-7-amine]
[1]
  CLint scaled at 1 μM: 424 mL/min/kg
  half-life at 1 μM: 0.217 h
  microsomal CLint at 1 μM: 107 µL/min/mg
[2]
  MIC90 LORA: 0.20 µg/mL (≈ 0.556 µM)
[3]
  IC50: 23.4 µg/mL (≈ 65.1 µM)
hERG
  inhibition at 0.3 µM: 8%
  inhibition at 1 µM: 19%
[4]
  MIC90: 1.54 µg/mL (≈ 4.28 µM)
[5]; human, microsomes
  CLint scaled at 1 μM: 68 mL/min/kg
  half-life at 1 μM: 0.3 h
[5]
  microsomal CLint at 1 μM: 76 µL/min/mg
[5]; [6]
  half-life at 1 μM: < 1.42 h
